One may read the GI50 as the concentration giving 50% growth inhibition. Low readings indicate more potent growth inhibition, high ones less potent growth inhibition.

We go through one compound from ChEMBL document CHEMBL5500390, “Overcoming Secondary Mutations of Type II Kinase Inhibitors” (J Med Chem, 2024).

Test [1] in a line: Inhibition of cell growth in mouse 32D cells transfected with FLT3 ITD mutant incubated for 2 days. Format: functional. To be noted: 48 h, time 2 day.
Test [2] in a line: Inhibition of cell growth in mouse 32D cells transfected with FLT3 ITD F691L mutant incubated for 2 days. Format: functional. To be noted: 48 h, time 2 day.

`CCCNc1nc(Nc2ccc(C#N)cc2)ncc1C#CCCCNC(=O)[C@H](C)N(C)C(=O)/C=C/CN(C)C` [FF-10101]: the GI50 in test [1] is 1.9 nM; in test [2], 10 nM.
